Test results from patent US11078197B2, “5-membered and bicyclic heterocyclic amides as inhibitors of rock” (BRISTOL-MYERS SQUIBB COMPANY, priority 2017, dated 2021).
pIC50: −log10 of the molar value.

Target: ROCK2 (Homo sapiens (Human), UniProt O75116)
Experiment: ROCK2 assay (peptide phosphorylation, LABCHIP 3000 Reader)
Type: biochemical
Details: 5 μM ATP, 1.5 μM peptide substrate, dose-response
Procedure: After incubation, the reaction was terminated by the addition of EDTA and the phosphorylated and non-phosphorylated peptides separated using a LABCHIP®3000 Reader (Caliper Life Sciences). […] Compounds were tested in dose-response format, and the inhibition of kinase activity was calculated at each concentration of compound. […] Representative Examples were tested in the ROCK2 assay described above and found having ROCK2 inhibitory activity.

Sequence of ROCK2 (O75116 whole entry, species assumed): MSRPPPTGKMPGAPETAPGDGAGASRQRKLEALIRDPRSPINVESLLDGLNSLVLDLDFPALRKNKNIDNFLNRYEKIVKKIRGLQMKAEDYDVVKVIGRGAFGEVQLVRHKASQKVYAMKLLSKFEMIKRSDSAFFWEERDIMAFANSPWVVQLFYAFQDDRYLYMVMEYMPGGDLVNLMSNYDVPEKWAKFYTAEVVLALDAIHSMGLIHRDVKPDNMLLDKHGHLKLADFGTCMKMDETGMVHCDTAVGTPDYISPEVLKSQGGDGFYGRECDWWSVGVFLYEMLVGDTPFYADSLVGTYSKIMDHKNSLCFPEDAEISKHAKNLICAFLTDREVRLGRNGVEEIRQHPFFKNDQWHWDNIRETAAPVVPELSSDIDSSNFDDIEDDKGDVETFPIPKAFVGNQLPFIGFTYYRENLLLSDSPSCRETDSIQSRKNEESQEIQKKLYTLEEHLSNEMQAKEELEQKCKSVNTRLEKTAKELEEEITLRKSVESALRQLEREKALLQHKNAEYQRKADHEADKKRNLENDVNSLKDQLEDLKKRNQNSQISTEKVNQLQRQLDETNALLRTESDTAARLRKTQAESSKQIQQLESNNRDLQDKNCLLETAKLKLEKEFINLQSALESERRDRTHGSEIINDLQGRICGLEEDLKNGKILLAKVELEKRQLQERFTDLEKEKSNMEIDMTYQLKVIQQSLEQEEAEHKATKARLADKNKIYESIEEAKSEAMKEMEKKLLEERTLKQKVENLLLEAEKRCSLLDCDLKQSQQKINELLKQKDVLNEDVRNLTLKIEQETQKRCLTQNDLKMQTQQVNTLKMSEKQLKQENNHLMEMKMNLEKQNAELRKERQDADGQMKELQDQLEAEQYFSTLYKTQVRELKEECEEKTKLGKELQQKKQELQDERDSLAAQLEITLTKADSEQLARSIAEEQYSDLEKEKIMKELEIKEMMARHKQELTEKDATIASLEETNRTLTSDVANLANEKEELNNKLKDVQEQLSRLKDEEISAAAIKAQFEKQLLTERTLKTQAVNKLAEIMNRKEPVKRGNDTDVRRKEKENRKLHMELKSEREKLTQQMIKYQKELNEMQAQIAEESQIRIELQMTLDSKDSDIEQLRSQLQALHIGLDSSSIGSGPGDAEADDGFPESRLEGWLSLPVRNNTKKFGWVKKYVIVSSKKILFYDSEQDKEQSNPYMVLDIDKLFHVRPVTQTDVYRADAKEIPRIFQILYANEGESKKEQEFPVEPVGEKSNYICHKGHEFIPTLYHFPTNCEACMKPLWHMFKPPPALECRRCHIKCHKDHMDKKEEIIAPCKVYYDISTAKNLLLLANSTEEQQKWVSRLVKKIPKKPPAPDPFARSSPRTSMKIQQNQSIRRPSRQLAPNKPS

Structure (SMILES) | pIC50
CC(C)(O)COc1ccc2c(C(=O)N[C@H]3C[C@]4(C3)C[C@H](Oc3nn(CCCN)cc3C(N)=O)C4)cnn2c1C1CC1 (stereo partly drawn) [Example 27, 1-(3-aminopropyl)-3-({(aR)-6-[7-cyclopropyl-6-(2-hydroxy-2-methylpropoxy)pyrazolo [1,5-a]pyridine-3-amido]spiro[3.3]heptan-2-yl}oxy)-1H-pyrazole-4-carboxamide] | 7.86
CC(C)(O)COc1ccc2c(C(=O)N[C@H]3CC4(C3)C[C@H](Oc3c(C(N)=O)cnn3CCCN)C4)cnn2c1C1CC1 (stereo partly drawn) [Example 28, 1-(3-aminopropyl)-5-({(aR)-6-[7-cyclopropyl-6-(2-hydroxy-2-methylpropoxy)pyrazolo [1,5-a]pyridine-3-amido]spiro[3.3]heptan-2-yl}oxy)-1H-pyrazole-4-carboxamide] | 6.26
CC(C)(O)COc1ccc2c(C(=O)N[C@H]3C[C@]4(C3)C[C@H](Oc3nn(CCN)cc3C(N)=O)C4)cnn2c1C1CC1 (stereo partly drawn) [Example 29, 1-(2-aminoethyl)-3-({(aR)-6-[7-cyclopropyl-6-(2-hydroxy-2-methylpropoxy)pyrazolo [1,5-a]pyridine-3-amido]spiro[3.3]heptan-2-yl}oxy)-1H-pyrazole-4-carboxamide] | 6.60
CC(C)(O)COc1ccc2c(C(=O)N[C@H]3C[C@]4(C3)C[C@H](Oc3nn(C(F)F)cc3C(N)=O)C4)cnn2c1C1CC1 (stereo partly drawn) [Example 30, 3-({(aR)-6-[7-cyclopropyl-6-(2-hydroxy-2-methylpropoxy)pyrazolo [1,5-a]pyridine-3-aimdo]spiro[3.3]heptan-2-yl}oxy)-1-(difluoromethyl)-1H-pyrazole-4-carboxamide] | 8.11
CC(C)(O)COc1ccc2c(C(=O)N[C@H]3C[C@]4(C3)C[C@H](Oc3nn(-c5ccccc5C#N)cc3C(N)=O)C4)cnn2c1C1CC1 (stereo partly drawn) [Example 31, 1-(2-cyanophenyl)-3-({(aR)-6-[7-cyclopropyl-6-(2-hydroxy-2-methylpropoxy)pyrazolo [1,5-a]pyridine-3-amido]spiro[3.3]heptan-2-yl}oxy)-1H-pyrazole-4-carboxamide] | 7.13
Cn1cc(C(N)=O)c(O[C@H]2C[C@@]3(C[C@H](NC(=O)c4cnn5cc(N6CCOCC6)ccc45)C3)C2)n1 (stereo partly drawn) [Example 32, 1-methyl-3-({(aR)-6-[6-(morpholin-4-yl)pyrazolo[1,5-a]pyridine-3-amido]spiro[3.3]heptan-2-yl}oxy)-1H-pyrazole-4-carboxamide] | 7.52
Cn1cc(C(N)=O)c(O[C@H]2C[C@@]3(C[C@H](NC(=O)c4cnn5cc(N6CC7(COC7)C6)ccc45)C3)C2)n1 (stereo partly drawn) [Example 33, 1-methyl-3-{[(aR)-6-(6-{2-oxa-6-azaspiro[3.3]heptan-6-yl}pyrazolo[1,5-a]pyridine-3-amido)spiro[3.3]heptan-2-yl]oxy}-1H-pyrazole-4-carboxamide] | 6.46
Cc1nc(O[C@H]2C[C@@]3(C[C@H](NC(=O)c4cnn5cc(N6CC(CO)(CCl)C6)ccc45)C3)C2)c(C(N)=O)s1 (stereo partly drawn) [Example 34, 4-[((aR)-6-{6-[3-(chloromethyl)-3-(hydroxymethyl)azetidin-1-yl]pyrazolo[1,5-a]pyridine-3-amido}spiro[3.3]heptan-2-yl)oxy]-2-methyl-1,3-thiazole-5-carboxamide] | 7.76
CN1CCN(c2ccc3c(C(=O)N[C@H]4C[C@]5(C4)C[C@H](Oc4nn(C)cc4C(N)=O)C5)cnn3c2)CC1 (stereo partly drawn) [Example 35, 1-methyl-3-({(aR)-6-[6-(4-methylpiperazin-1-yl)pyrazolo[1,5-a]pyridine-3-amido]spiro[3.3]heptan-2-yl}oxy)-1H-pyrazole-4-carboxamide] | 6.69
Cn1cc(C(N)=O)c(O[C@H]2C[C@@]3(C[C@H](NC(=O)c4nn(C(F)F)c5cc(OCC(C)(C)O)ccc45)C3)C2)n1 (stereo partly drawn) [Example 36, N-{(aR)-6-[(4-carbamoyl-1-methyl-1H-pyrazol-3-yl)oxy]spiro[3.3]heptan-2-yl}-1-(difluoromethyl)-6-(2-hydroxy-2-methylpropoxy)-1H-indazole-3-carboxamide] | 7.65
